In patent publication US20220105183A1, “MICRO-NANO STRUCTURE FORMED BY SELF-ASSEMBLING ORGANIC SMALL MOLECULE COMPOUND AND USE THEREOF” (Qingdao University of Science and Technology, priority 2018, published 2022):

Columns and labels:
Assay type in all cases: physicochemical
[1] = DLS particle size / self-assembly of the compounds in aqueous solution; settings: 20 μM working solution in deionized water; for DLS particle size peak (nm) / DLS particle size range (nm): micro-nano structure
Experimental: The term “particle size” refers to the size of particles, also known as “granularity” or “diameter”. When a certain physical characteristic or physical behavior of the measured particle is closest to a homogeneous sphere (or combination) of a certain diameter, the diameter (or combination) of the sphere is taken as the equivalent particle size of the measured particle. The particle size parameter of the micro-nano structure of the present invention is measured by the principle of dynamic light scattering (DLS), specifically measured by a laser particle size analyzer.
(§1) Taking the self-assembled micro-nano structure of Compound II-1 as an example, II-1 was dissolved in DMSO (also can be an organic solvent such as ethanol) to prepare a 2 mM storage solution, and a small amount of storage solution was added to deionized water to prepare 20 μM working solution. Took 10 μL and dropped it on copper mesh, observed and analyzed under transmission electron microscope (TEM), cryo-transmission electron microscope. Took 10 μL and dropped it on mica plate, observed and analyzed under atomic force microscope (AFM). In FIGS. 5, A, B, C and D were TEM photographs, cryo-transmission electron microscope photographs, AFM photographs, and AFM analysis data, respectively. According to the photographs and data, II-1 was self-assembled into nanosheets with a diameter of 40-70 nm and a thickness of 3.7-3.9 nm. […]
Among them, the particle size test results of II-12 to II-15 in aqueous solution are shown in FIG. 6, and the results of dynamic light scattering DLS of II-16 to 1-18 are shown in FIG. 7).

[2] = TEM, cryo-TEM and AFM of the self-assembled micro-nano structure; settings: micro-nano structure in aqueous solution, AFM and TEM
Experimental: as §1

[3] = Photothermal effect in vitro under 808 nm laser irradiation; settings: for light-to-heat conversion efficiency: 20 μM in water; for light-to-heat conversion efficiency / photothermal effect: 808 nm (2.6 W/cm-2) laser 10 minutes; for temperature rise: 40 μM in water, 808 nm (2.6 W/cm-2) laser, within 10 minutes; for photothermal effect: in water
Experimental: A total of 4 groups of samples, 3 mL was taken and added to a cuvette respectively, and the lid was sealed.
The sample No. 2 was 10 μM II-1, and the specific preparation method is 3 mL deionized water plus 15 μL II-1 stock solution (2 mM, dissolved in DMSO);
The sample No. 3 was 20 μM II-1, and the specific preparation method was that 3 mL deionized water was added 30 μL II-1 stock solution (2 mM, dissolved in DMSO);
The sample No. 4 was 40 μM II-1, and the specific preparation method was that 3 mL deionized water was added 60 μL II-1 stock solution (2 mM, dissolved in DMSO).
Each sample was irradiated with an 808 nm laser for 5 minutes, and the temperature data was recorded every 5 seconds with a thermal imager, and the temperature corresponding to the time was plotted in origin, as shown in the left figure of FIG. 8. […] The temperature of sample No. 2 increased from room temperature 30° C. to 54° C., and the temperature was raised by 24° C. The temperature of sample No. 3 increased from room temperature 30° C. to 62° C., and the temperature was raised by 32° C. The temperature of sample No. 4 increased from room temperature 30° C. to 77° C., and the temperature was raised by 47° C.
Using a method similar to Example 8, 10 μM, 20 μM and 40 μM samples of II-16, II-17 and II-18 were prepared, respectively, they were irradiated under an 808 nm (2.6 W/cm-2) laser for 10 minutes. 40 μM II-16 to 18 samples can rise by 40° C., 36° C. and 18° C. respectively within 10 minutes under laser irradiation.
Using a method similar to that in Example 8, three samples of 20 μM of 1-16, II-17 and II-18 in water were irradiated with 808 nm (2.6 W/cm-2) laser for 10 minutes, and the light-to-heat conversion efficiency calculation result thereof were shown in FIG. 10. […] And II-18 not only has poor light-heat effect, but also has low light-heat conversion efficiency, only 12.9%.

[4] = Photothermal stability, repeated 808 nm irradiation and cooling; settings: for reduction of absorbance after 5 times of irradiation: ultraviolet spectra before and after
Experimental: We selected sample No. 3 to test the photothermal stability experiment. As shown in the right figure of FIG. 8, sample No. 3 was irradiated with 808 nm laser for 9 minutes and then the temperature increased from room temperature 30° C. to 62° C., and then allowed to naturally cool down to room temperature, and irradiated with 808 nm laser again for 9 minutes, then naturally cooled down, and repeated for 5 times. […] After 9 minutes of irradiation, the temperature was raised by […], and then returned to room temperature.

[5] = Assembly stability in different media
Experimental: Since II-16 has excellent photothermal properties, its assembly stability in serum-containing medium and in PBS at different temperatures was tested, as shown in FIG. 13.

[6] = 808 nm laser at 2.6 W/cm-2, irradiated and cooled 5 times

Compound	DLS particle size peak (nm) [1] [nm]	DLS particle size range (nm) [1]	Morphology [2]	light-to-heat conversion efficiency [3] [%]	temperature rise [3] [°C]	photothermal effect [3]	reduction of absorbance after 5 times of irradiation [4, 6] [%]	particle size by DLS [1]	temperature raised by, first irradiation ([4]; 808 nm laser, after 9 minutes of irradiation) [°C]	temperature on laser irradiation again ([4]; after return to room temperature, second irradiation)	absorbance over time ([5]; at 37° C.)	temperature in repeated irradiations [4, 6]	aggregation mode (H aggregation) ([5]; serum-containing medium and PBS at different temperatures)
C#CCOc1ccc(C2CC(=CC=C3N(CC)c4ccccc4C3(C)C)C(Cl)=C(C=CC3=C(C#N)C(=C(C#N)C#N)OC3(C)C)C2)cc1 (centres unmarked) [II-13]	74	40-110 nm	nano-sheet										
C#CCOc1ccc(C2CC(=CC=C3N(CC)c4ccccc4C3(C)C)C(NCCn3ccnc3[N+](=O)[O-])=C(C=CC3=C(C#N)C(=C(C#N)C#N)OC3(C)C)C2)cc1 (centres unmarked) [II-15]	60	40-110 nm	nano-sheet										
CC1(C)C(/C=C/C=C/C=C/C=C2\N(CCCCS(=O)(=O)[O-])c3ccc4ccccc4c3C2(C)C)=[N+](CCCCS(=O)(=O)[O-])c2ccc3ccccc3c21.[Na+] [ICG, reference compound]								could not be detected	15	the temperature cannot be increased			
C=CCOc1ccc(C2CC(=CC=C3N(CC)c4ccccc4C3(C)C)C(Cl)=C(C=CC3=C(C#N)C(=C(C#N)C#N)OC3(C)C)C2)cc1 (centres unmarked) [II-12]	78	20-160 nm	nano-sheet										
CCN1C(=CC=C2CCCC(C=CC3=C(C#N)C(=C(C#N)C#N)OC3(C)C)=C2Cl)C(C)(C)c2ccc3ccccc3c21 [II-14]	78	27-134 nm	nano-sheet										

Second part, led by results:

DLS particle size peak (nm) [1] [nm]	DLS particle size range (nm) [1]	Morphology [2]	light-to-heat conversion efficiency [3] [%]	temperature rise [3] [°C]	photothermal effect [3]	reduction of absorbance after 5 times of irradiation [4, 6] [%]	particle size by DLS [1]	temperature raised by, first irradiation ([4]; 808 nm laser, after 9 minutes of irradiation) [°C]	temperature on laser irradiation again ([4]; after return to room temperature, second irradiation)	absorbance over time ([5]; at 37° C.)	Compound	temperature in repeated irradiations [4, 6]	aggregation mode (H aggregation) ([5]; serum-containing medium and PBS at different temperatures)
10	10-86 nm	nano-sheet	25	36	excellent photothermal effect	75					CCN1C(=CC=C2CCCC(C=CC3=C(C#N)C(=C(C#N)C#N)OC3(C)C)=C2Cl)Sc2ccccc21 [II-17]		
42	42-139 nm	nano-sheet	12.9	18	poor photothermal effect						CCN(CC)c1ccc2c(c1)OC1=C(C=C3CCCC(C=CC4=C(C#N)C(=C(C#N)C#N)OC4(C)C)=C3Cl)CCCC1=C2 [II-18]		
199	163-293 nm	nano-sheet	56.9	40	excellent photothermal effect	2				the absorbance will decrease with time	CCn1c(=CC=C2CCCC(C=CC3=C(C#N)C(=C(C#N)C#N)OC3(C)C)=C2Cl)c2cccc3cccc1c32 [II-16]	each time the temperature can rise to the same temperature as the first time	will not change due to changes in external conditions
